Consider 23 compounds from patent US10100077B2, “6-aryl-9-glycosylpurines and use thereof” (UNIVERZITA PALACKEHO V OLOMOUCI, priority 2014, dated 2018).

For one series, the system named is breast cancer (MCF-7). Put plainly: Calcein AM cytotoxicity assay, MCF-7. Format: cell-based. Particulars: 72 hrs. The source says: (§1) One of the parameters used as the base for cytotoxic analysis is metabolic activity of viable cells, such as microtiter assay, which uses the Calcein AM, is now widely used to quantitate cell proliferation and cytotoxicity. The quantity of reduced Calcein AM corresponds to the number of viable cells in culture. The cell lines of breast cancer (MCF-7), mousse fibroblasts (NIH3T3), human erythromleukemia (K562) were used for routine screening of cytotoxicity of the compounds. The cells were maintened in Nunc/Corning 80 cm^2 plastic bottles and grown in media for cell culture (DMEM containing 5 g/l of glucose, 2 mM of glutamin, 100 U/ml of penicilin, […] of streptomycin, 10% of fetal bovine serum and sodium hydrogencarbonate). Cell suspensions were diluted according to cell types and according to expected final cell density (10^4 of cells per well according to characteristics of cell growth), pipetted 80 μl of cell suspension on 96-well microtiter plates. Innoculates were stabilized by 24 hrs preincubation at 37° C. in CO2. Particular concentrations of tested compounds were added in time zero as 20 μl aliquotto wells of microtiter plates. Usually, the compounds were diluted into six concentrations in four-fold dilution series. In routine testing, the highest well concentration was 166.7 μM, of change dependent on the substance. All drug concentrations were examined in duplicates. The incubation of cells with tested derivatives lasted 72 hrs at 37° C., 100% humidity and in the atmosphere of CO2. At the end of the incubation period, the cells were tested and analysed according to the addition of Calcein AM (Molecular probes) solution and the incubation lasted for next 1 hour. Fluorescence (FD) was measured using Labsystem FIA reader Fluorskan Ascent (Microsystems). The survival of tumor cells (The tumor cell survival-TCS) was counted according to equation: […]=(FDwell with derivative/FDcontrol well)×100%. The value of GI50, that is equal to the concentration of compound at which 50% of tumour cells are terminated. To evaluate the antitumor activity was tested toxicity of new derivatives on panel of cell lines of different histogenetic and species origin (Tab. 7, G150 concentration given in μM). […] Effective derivatives killed tumor cells in concentrations close to 0.1 to 50. None of the newly prepared compounds only reached the value.

Series [1] has as its system mousse fibroblasts (NIH3T3). Put plainly: Calcein AM cytotoxicity assay, NIH3T3. Type of series: cell-based, mouse. Particulars: 72 hrs.
Source text: as §1

For series [2], the system named is human erythromleukemia (K562). Briefly: Calcein AM cytotoxicity assay, K562. Format: cell-based. The following applies: 72 hrs.
Source text: as §1

The subject of series [3] is skin fibroblasts BJ and keratinocytes HaCaT. Put plainly: MTT in vitro cytotoxicity test for skin cells. Type of series: cell-based. The following applies: for IC50: MTT, 72 hour treatment, BJ and HaCaT, maximal concentration 50 microM. On the procedure: MTT assay is a standard test of toxicity based on photometric measurement of the ability of metabolically active cells to reduce MTT (3-(4,5-dimethylthiazol-2-yl)-2,5-diphenyltetrazolium bromide). Using the assay, the effects of 72 hour treatments with several concentrations of the compounds (sixfold dilution, maximal concentration=50 microM) on viability of skin fibroblasts BJ and keratinocytes HaCaT were evaluated. About 5,000 cells were seeded per well of a 96-well plate 24 hours before the treatment. DMSO vehiculum was used as a negative control. After 72 hour treatment, new medium with MTT (Sigma, M2128) was added to a final concentration of 0.5 mg/ml. After 3 hours, medium was removed and resulting formazan in the cells was dissolved in DMSO. The absorbance was measured at 570 nm (640 nm reference wavelength). The IC50 values were calculated from the dose-response curves. 6-Benzylaminopurine riboside and 6-furfurylaminopurine riboside were used as positive controls they were toxic in the MTT test.

For series [4] the test system is unchanged. Put plainly: SRB in vitro toxicity test. Type of series: cell-based. Particulars: 72 hour treatment, maximal concentration 50 microM. As for the experimental part:
SRB (sulforhodamine B) assay is a standard toxicity test based on a photometric measurement of the cellular protein content after the staining with sulphorhodamine B. Using the assay, the effects of 72 hour treatments with several concentrations of the compounds (sixfold dilution, maximal concentration=50 microM) on viability of skin fibroblasts BJ and keratinocytes HaCaT were evaluated. About 5,000 cells were seeded per well of a 96-well plate 24 hours before the treatment. DMSO vehiculum was used as a negative non-toxic control. 6-benzylaminopurine riboside a 6-furfurylaminopurin riboside were used as positive toxic controls. After three days the medium was removed and the cells fixed with 10% (wt/vol) trichloroacetic acid. After the extensive washing in distilled water, 0.4% (wt/vol) solution of SRB in acetic acid was added and the fixed cells were stained for 30 minutes. The unbound stain was washed away by distilled water and the bound SRB was solubilized in unbuffered 10 mM Tris base. Absorbance was measured at 564 nm. IC50 values were calculated from dose-response curves.

Series [5] has as its system detached leaf segments of Triticum aestivum cv. Hereward. Briefly: Senescence bioassay on wheat leaf segments (chlorophyll retention). Particulars: for maximum effective concentration: 96 h in the dark at 25° C.; for activity (%) [10^−4 mol · l^−1 BAP = 100%]: chlorophyll retention at maximum effective concentration, 96 h dark. On the procedure:
Seeds of winter wheat, Triticum aestivum cv. Hereward, were washed under running water for 24 hours and then sown on vermiculite soaked with Knop's solution. They were placed in the growth chamber at 25° C. with a 16/8 h light period at 50 μmol·m^−2·s^−1. After 7 days, the first leaf was fully developed and the second leaf had started to grow. A tip section of the first leaf, approximately 35 mm long, was removed from 5 seedlings and trimmed slightly to a combined weight of 100 mg. The basal ends of the five leaf tips were placed in the wells of a microtiter polystyrene plate containing 150 μL, of the tested derivative solution each. The entire plate was inserted into a plastic box lined with paper tissues soaked in distilled water to prevent leaf sections from drying out. After 96 h incubation in the dark at 25° C., the leaves were removed and chlorophyll extracted by heating at 80° C. for 10 min in 5 mL of 80% ethanol (v/v). The sample volume was then restored to 5 mL by the addition of 80% ethanol (v/v). The absorbance of the extract was recorded at 665 nm. In addition, chlorophyll extracts from fresh leaves and leaf tips incubated in deionised water were measured. The results are means of five replicates and the entire test was repeated twice. […] The compounds to be tested were dissolved in dimethylsulfoxide (DMSO) and the solution brought up to 10^−3M with distilled water. This stock solution was further diluted with the respective media used for the biotest to a concentration ranging from 10^−8M to 10^−4M. […] The activity obtained for 10^−4 M of BAP was postulated as 100%.

Regarding “2,4-dimethoxybenzylamino-9-β-D-arabinofuranosylpurine”, the figures for the GI50 (in the series on breast cancer (MCF-7); in series [1]; in series [2]) were 98 µM, more than 100 µM and more than 100 µM, respectively.
With “2-chloro-4-fluorobenzylamino-9-β-D-arabinofuranosylpurine”, the GI50 (with breast cancer (MCF-7); in series [1]; in series [2]) was more than 100 µM each time.
Turning to “3-chloro-4-fluorobenzylamino-9-β-D-arabinofuranosylpurine”, the GI50 (in the series with breast cancer (MCF-7); in series [1]; in series [2]) was more than 100 µM each time.
Take `OC[C@H]1O[C@@H](n2cnc3c(NCc4ccccc4F)ncnc32)[C@@H](O)[C@@H]1O` [2-fluorobenzylamino-9-β-D-arabinofuranosylpurine]: the GI50 is 87 µM in the series on breast cancer (MCF-7), more than 100 µM in series [1] and more than 100 µM in series [2].
For `OC[C@H]1O[C@@H](n2cnc3c(NCc4cccc(Cl)c4)ncnc32)C[C@@H]1O` [3-chlorobenzylamino-9-β-D-2′-deoxyribosylpurine], the GI50 (in the series with breast cancer (MCF-7); in series [1]; in series [2]) was more than 100 µM each time.
For the compound `COc1ccc(CNc2ncnc3c2ncn3[C@@H]2O[C@H](CO)[C@@H](O)[C@@H]2O)c(OC)c1OC` [6-(2,3,4-trimethoxybenzylamino)-9-β-D-arabinofuranosylpurine], the IC50 in series [3] (Homo sapiens) is 48 µM; in series [4] (Homo sapiens) it was more than 50 µM.
`COc1cccc(CNc2ncnc3c2ncn3[C@@H]2O[C@H](CO)[C@@H](O)[C@@H]2O)c1OC` [6-(2,3-dimethoxybenzylamino)-9-β-D-arabinofuranosylpurine]: the IC50 is 49 µM in series [3] (Homo sapiens) and more than 50 µM in series [4] (Homo sapiens).
Turning to `OC[C@H]1O[C@@H](n2cnc3c(NCc4ccc(Cl)cc4Cl)ncnc32)[C@H](O)[C@@H]1O` [6-(2,4-dichlorbenzylamino)-9-riboside, reference compound], in series [5], the maximum effective concentration is recorded as 10^−4 mol · l^−1 and the “activity (%) [10^−4 mol · l^−1 BAP = 100%]” value (“activity (%)” below) turned out to be 5 ± 1%.
In the case of `OC[C@H]1O[C@@H](n2cnc3c(NCc4ccccc4Br)ncnc32)[C@@H](O)[C@@H]1O` [6-(2-bromobenzylamino)-9-β-D-arabinofuranosylpurine], the “activity (%)” value in series [5] amounted to 186 ± 19%.
Turning to `OC[C@H]1O[C@@H](n2cnc3c(NCc4ccccc4Cl)ncnc32)[C@@H](O)[C@@H]1O` [6-(2-chlorobenzylamino)-9-β-D-arabinofuranosylpurine], the IC50 in series [3] (Homo sapiens) and in series [4] (Homo sapiens) was more than 50 µM in each case.
For `OC[C@H]1O[C@@H](n2cnc3c(NCc4ccccc4O)ncnc32)C[C@@H]1O` [6-(2-hydroxybenzylamino)-9-β-D-2′-deoxyribofuranosylpurine], the IC50 in series [3] and in series [4] was more than 50 µM each time.
In the case of `COc1ccc(CNc2ncnc3c2ncn3[C@@H]2O[C@H](CO)[C@@H](O)[C@H]2O)cc1OC` [6-(3,4-dimethoxybenzylamino)-9-riboside, reference compound], in series [5], the maximum effective concentration is given as 10^−4 mol · l^−1 and the “activity (%)” value was 47 ± 6%.
On to `COc1ccc(CNc2ncnc3c2ncn3[C@@H]2O[C@H](CO)[C@@H](O)[C@@H]2O)cc1OC` [6-(3,4-dimethoxybenzylamino)-9-β-D-arabinofuranosylpurine], for which the “activity (%)” value in series [5] was determined as 147 ± 6%.
`Nc1cccc(CNc2ncnc3c2ncn3[C@@H]2O[C@H](CO)[C@@H](O)[C@@H]2O)c1` [6-(3-aminobenzylamino)-9-β-D-arabinofuranosylpurine]: the IC50 in series [3] (Homo sapiens) and in series [4] (Homo sapiens) was more than 50 µM each time.
As to `OC[C@H]1O[C@@H](n2cnc3c(NCc4cccc(Br)c4)ncnc32)[C@H](O)[C@@H]1O` [6-(3-bromobenzylamino)-9-riboside, reference compound], in series [5], the maximum effective concentration was 10^−4 mol · l^−1 and the “activity (%)” value came to 89 ± 10%.
As for `OC[C@H]1O[C@@H](n2cnc3c(NCc4cccc(Br)c4)ncnc32)[C@@H](O)[C@@H]1O` [6-(3-bromobenzylamino)-9-β-D-arabinofuranosylpurine], the “activity (%)” value in series [5] was 198 ± 10%.
Turning to `OC[C@H]1O[C@@H](n2cnc3c(NCc4cccc(Cl)c4)ncnc32)[C@H](O)[C@@H]1O` [6-(3-chlorobenzylamino)-9-riboside, reference compound], in series [5], the maximum effective concentration is on record as 10^−4 mol · l^−1 and the “activity (%)” value stood at 72 ± 8%.
For `OC[C@H]1O[C@@H](n2cnc3c(NCc4cccc(O)c4)ncnc32)[C@@H](O)[C@@H]1O` [6-(3-hydroxybenzylamino)-9-β-D-arabinofuranosylpurine], the IC50 in series [3] (Homo sapiens) and in series [4] (Homo sapiens) was more than 50 µM each time.
In the case of `OC[C@H]1O[C@@H](n2cnc3c(NCc4cccc(I)c4)ncnc32)[C@H](O)[C@@H]1O` [6-(3-iodobenzylamino)-9-riboside, reference compound], in series [5], the maximum effective concentration was 10^−4 mol · l^−1 and the “activity (%)” value stood at 58 ± 19%.
In the case of `OC[C@H]1O[C@@H](n2cnc3c(NCc4cccc(I)c4)ncnc32)[C@@H](O)[C@@H]1O` [6-(3-iodobenzylamino)-9-β-D-arabinofuranosylpurine], the IC50 in series [3] (Homo sapiens) and in series [4] (Homo sapiens) was more than 50 µM in each case. For the same compound, the “activity (%)” value in series [5] is 198 ± 4%.
With `OC[C@H]1O[C@@H](n2cnc3c(NCc4ccc(Br)cc4)ncnc32)[C@@H](O)[C@@H]1O` [6-(4-bromobenzylamino)-9-β-D-arabinofuranosylpurine], in series [5], the “activity (%)” value is 176 ± 11%.
Regarding `OC[C@H]1O[C@@H](n2cnc3c(NCc4ccco4)ncnc32)C[C@@H]1O` [6-(furfurylamino)-9-β-D-2′-deoxyribofuranosylpurine], the IC50 in series [3] and in series [4] was more than 50 µM in each case.
In the case of `OC[C@H]1OC(n2cnc3c(NCc4ccco4)ncnc32)[C@H](O)[C@@H]1O` (stereo partly shown) [6-furfurylamino-9-ribosylpurine, reference compound], the IC50 in series [3] (Homo sapiens) and in series [4] (Homo sapiens) was not above 3 µM each time. Besides, the “toxicity in the MTT test” value in series [3] (positive controls) is given as “toxic”.
